Converted amounts (≈) assume the structure as drawn.
Tests used:
Type in all cases: functional
[1] = tested on: Mycobacterium tuberculosis; test: Antimycobacterial activity against multi-drug resistant Mycobacterium tuberculosis Praha 4 after 21 days by microplate dilution method; details: Praha 4, 504 h
[2] = tested on: Mycobacterium tuberculosis; test: Antimycobacterial activity against multi-drug resistant Mycobacterium tuberculosis Praha 1 after 21 days by microplate dilution method; details: Praha 1, 504 h
[3] = tested on: Mycobacterium tuberculosis; test: Antimycobacterial activity against multi-drug resistant Mycobacterium tuberculosis Praha 1 after 14 days by microplate dilution method; details: Praha 1, 336 h
[4] = tested on: Mycobacterium tuberculosis; test: Antimycobacterial activity against multi-drug resistant Mycobacterium tuberculosis 9449/2007 after 21 days by microplate dilution method; details: 9449/2007, 504 h
[5] = tested on: Mycobacterium tuberculosis; test: Antimycobacterial activity against multi-drug resistant Mycobacterium tuberculosis Praha 131 after 21 days by microplate dilution method; details: Praha 131, 504 h
[6] = tested on: Mycobacterium tuberculosis; test: Antimycobacterial activity against multi-drug resistant Mycobacterium tuberculosis 8666/2010 after 14 days by microplate dilution method; details: 8666/2010, 336 h
[7] = tested on: Mycobacterium tuberculosis; test: Antimycobacterial activity against multi-drug resistant Mycobacterium tuberculosis 234/2005 after 21 days by microplate dilution method; details: 234/2005, 504 h
[8] = tested on: Mycobacterium tuberculosis; test: Antimycobacterial activity against multi-drug resistant Mycobacterium tuberculosis Praha 131 after 14 days by microplate dilution method; details: Praha 131, 336 h
[9] = tested on: Mycobacterium tuberculosis; test: Antimycobacterial activity against multi-drug resistant Mycobacterium tuberculosis 8666/2010 after 21 days by microplate dilution method; details: 8666/2010, 504 h
[10] = tested on: Mycobacterium tuberculosis; test: Antimycobacterial activity against multi-drug resistant Mycobacterium tuberculosis 7357/1998 after 21 days by microplate dilution method; details: 7357/1998, 504 h
[11] = tested on: Mycobacterium tuberculosis; test: Antimycobacterial activity against multi-drug resistant Mycobacterium tuberculosis 234/2005 after 14 days by microplate dilution method; details: 234/2005, 336 h
[12] = tested on: Mycobacterium tuberculosis; test: Antimycobacterial activity against multi-drug resistant Mycobacterium tuberculosis 9449/2007 after 14 days by microplate dilution method; details: 9449/2007, 336 h
[13] = tested on: Mycobacterium tuberculosis; test: Antimycobacterial activity against multi-drug resistant Mycobacterium tuberculosis Praha 4 after 14 days by microplate dilution method; details: Praha 4, 336 h
[14] = tested on: Mycobacterium tuberculosis; test: Antimycobacterial activity against multi-drug resistant Mycobacterium tuberculosis 7357/1998 after 14 days by microplate dilution method; details: 7357/1998, 336 h

Work on `CCCCNc1cnc(C(=O)NCc2ccccc2)cn1` yielded an MIC [1] of 125 µM (≈ 35.5 µg/mL), an MIC [2] of 250 µM (≈ 71.1 µg/mL) and an MIC [3] of 125 µM (≈ 35.5 µg/mL). It also gave an MIC [4] of 125 µM (≈ 35.5 µg/mL), an MIC [5] of 125 µM (≈ 35.5 µg/mL) and an MIC [6] of 125 µM (≈ 35.5 µg/mL). The MIC [7] was 250 µM (≈ 71.1 µg/mL), the MIC [8] was 62.5 µM (≈ 17.8 µg/mL) and the MIC [9] was 250 µM (≈ 71.1 µg/mL). For the same compound, the MIC [10] was 125 µM (≈ 35.5 µg/mL), the MIC [11] was 125 µM (≈ 35.5 µg/mL) and the MIC [12] was 62.5 µM (≈ 17.8 µg/mL). The MIC [13] was 62.5 µM (≈ 17.8 µg/mL) and the MIC [14] was 125 µM (≈ 35.5 µg/mL).
`CCCCCCNc1cncc(C(=O)NCc2ccccc2)n1` was tested, and the MIC [1] was 32 µM (≈ 10 µg/mL), the MIC [2] was 32 µM (≈ 10 µg/mL) and the MIC [3] was 16 µM (≈ 5 µg/mL). The MIC [4] was 32 µM (≈ 10 µg/mL), the MIC [5] was 32 µM (≈ 10 µg/mL) and the MIC [6] was 16 µM (≈ 5 µg/mL). The MIC [7] was 32 µM (≈ 10 µg/mL), the MIC [8] was 16 µM (≈ 5 µg/mL) and the MIC [9] was 32 µM (≈ 10 µg/mL). It also gave an MIC [10] of 32 µM (≈ 10 µg/mL), an MIC [11] of 16 µM (≈ 5 µg/mL) and an MIC [12] of 32 µM (≈ 10 µg/mL). For the same compound, the MIC [13] was 32 µM (≈ 10 µg/mL) and the MIC [14] was 32 µM (≈ 10 µg/mL).
`CCCCCCNc1nccnc1C(=O)NCc1ccccc1` showed an MIC [1] of over 1000 µM, an MIC [2] of over 1000 µM and an MIC [3] of 1000 µM (≈ 312 µg/mL). It also gave an MIC [4] of 1000 µM (≈ 312 µg/mL), an MIC [5] of over 1000 µM and an MIC [6] of 1000 µM (≈ 312 µg/mL). For the same compound, the MIC [7] was over 1000 µM, the MIC [8] was 1000 µM (≈ 312 µg/mL) and the MIC [9] was over 1000 µM. The MIC [10] was over 1000 µM, the MIC [11] was 1000 µM (≈ 312 µg/mL) and the MIC [12] was 1000 µM (≈ 312 µg/mL). For the same compound, the MIC [13] was 1000 µM (≈ 312 µg/mL) and the MIC [14] was 1000 µM (≈ 312 µg/mL).
`CCCCCCCNc1nccnc1C(=O)NCc1ccccc1` showed an MIC [1] of over 1000 µM, an MIC [2] of over 1000 µM and an MIC [3] of 1000 µM (≈ 326 µg/mL). The MIC [4] was over 1000 µM, the MIC [5] was over 1000 µM and the MIC [6] was 1000 µM (≈ 326 µg/mL). For the same compound, the MIC [7] was over 1000 µM, the MIC [8] was 1000 µM (≈ 326 µg/mL) and the MIC [9] was over 1000 µM. The MIC [10] was 1000 µM (≈ 326 µg/mL), the MIC [11] was 1000 µM (≈ 326 µg/mL) and the MIC [12] was over 1000 µM. It also gave an MIC [13] of over 1000 µM and an MIC [14] of 1000 µM (≈ 326 µg/mL).
Compound `CCCCCNc1nccnc1C(=O)NCc1ccccc1` has an MIC [1] of over 1000 µM, an MIC [2] of over 1000 µM and an MIC [3] of 1000 µM (≈ 298 µg/mL). The MIC [4] was over 1000 µM, the MIC [5] was over 1000 µM and the MIC [6] was 1000 µM (≈ 298 µg/mL). The MIC [7] was over 1000 µM, the MIC [8] was 1000 µM (≈ 298 µg/mL) and the MIC [9] was over 1000 µM. It also gave an MIC [10] of over 1000 µM, an MIC [11] of 1000 µM (≈ 298 µg/mL) and an MIC [12] of 1000 µM (≈ 298 µg/mL). The MIC [13] was 1000 µM (≈ 298 µg/mL) and the MIC [14] was 1000 µM (≈ 298 µg/mL).
Compound `CCCCCCCNc1cncc(C(=O)NCc2ccccc2)n1` has an MIC [1] of 16 µM (≈ 5.22 µg/mL), an MIC [2] of 16 µM (≈ 5.22 µg/mL) and an MIC [3] of 16 µM (≈ 5.22 µg/mL). It also gave an MIC [4] of 16 µM (≈ 5.22 µg/mL), an MIC [5] of 16 µM (≈ 5.22 µg/mL) and an MIC [6] of 16 µM (≈ 5.22 µg/mL). It also gave an MIC [7] of 16 µM (≈ 5.22 µg/mL), an MIC [8] of 8 µM (≈ 2.61 µg/mL) and an MIC [9] of 16 µM (≈ 5.22 µg/mL). It also gave an MIC [10] of 16 µM (≈ 5.22 µg/mL), an MIC [11] of 16 µM (≈ 5.22 µg/mL) and an MIC [12] of 16 µM (≈ 5.22 µg/mL). For the same compound, the MIC [13] was 8 µM (≈ 2.61 µg/mL) and the MIC [14] was 16 µM (≈ 5.22 µg/mL).
`CCCCCNc1cncc(C(=O)NCc2ccccc2)n1` gave an MIC [1] of 62.5 µM (≈ 18.6 µg/mL), an MIC [2] of 62.5 µM (≈ 18.6 µg/mL) and an MIC [3] of 62.5 µM (≈ 18.6 µg/mL). The MIC [4] was 62.5 µM (≈ 18.6 µg/mL), the MIC [5] was 62.5 µM (≈ 18.6 µg/mL) and the MIC [6] was 62.5 µM (≈ 18.6 µg/mL). The MIC [7] was 62.5 µM (≈ 18.6 µg/mL), the MIC [8] was 32 µM (≈ 9.55 µg/mL) and the MIC [9] was 62.5 µM (≈ 18.6 µg/mL). It also gave an MIC [10] of 62.5 µM (≈ 18.6 µg/mL), an MIC [11] of 62.5 µM (≈ 18.6 µg/mL) and an MIC [12] of 32 µM (≈ 9.55 µg/mL). It also gave an MIC [13] of 32 µM (≈ 9.55 µg/mL) and an MIC [14] of 32 µM (≈ 9.55 µg/mL).
Work on `CCCCCCCCNc1cncc(C(=O)NCc2ccccc2)n1` yielded an MIC [1] of 16 µM (≈ 5.45 µg/mL), an MIC [2] of 16 µM (≈ 5.45 µg/mL) and an MIC [3] of 16 µM (≈ 5.45 µg/mL). For the same compound, the MIC [4] was 16 µM (≈ 5.45 µg/mL), the MIC [5] was 16 µM (≈ 5.45 µg/mL) and the MIC [6] was 16 µM (≈ 5.45 µg/mL). It also gave an MIC [7] of 16 µM (≈ 5.45 µg/mL), an MIC [8] of 16 µM (≈ 5.45 µg/mL) and an MIC [9] of 16 µM (≈ 5.45 µg/mL). It also gave an MIC [10] of 16 µM (≈ 5.45 µg/mL), an MIC [11] of 16 µM (≈ 5.45 µg/mL) and an MIC [12] of 16 µM (≈ 5.45 µg/mL). The MIC [13] was 16 µM (≈ 5.45 µg/mL) and the MIC [14] was 16 µM (≈ 5.45 µg/mL).

From ChEMBL document CHEMBL3745676, “Alkylamino derivatives of N-benzylpyrazine-2-carboxamide: synthesis and antimycobacterial evaluation” (Medchemcomm, 2015)
